What was measured:
[1] = target: T1, thromboxane A2 (TxA2) receptor (Cavia porcellus, UniProt A0A286Y4I8); assay: TxA2 antagonist action by binding assay; conditions: washed guinea pig platelets, 1 nM [3H]-SQ29,548, 45 minutes at 25° C.
T1 construct: to obtain washed platelets; from tissue; host or cells: washed platelets of male Hartley guinea pigs
T1 sequence (A0A286Y4I8 1-347): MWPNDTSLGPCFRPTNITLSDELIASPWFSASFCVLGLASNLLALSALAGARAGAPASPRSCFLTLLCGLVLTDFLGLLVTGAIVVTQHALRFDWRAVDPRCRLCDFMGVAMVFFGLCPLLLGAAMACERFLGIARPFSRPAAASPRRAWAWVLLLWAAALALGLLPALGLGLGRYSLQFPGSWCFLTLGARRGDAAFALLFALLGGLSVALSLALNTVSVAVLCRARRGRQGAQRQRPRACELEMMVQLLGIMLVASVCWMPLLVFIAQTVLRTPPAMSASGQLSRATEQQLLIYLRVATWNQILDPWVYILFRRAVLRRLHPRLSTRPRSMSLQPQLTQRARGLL
Procedure: (1) TxA2 antagonist action by binding assay Guinea pigs (Hartley; male; body weight=approximately 500 g) were anesthetized with ether, and the blood was collected into sodium citrate (final concentration=0.38%). The preparation of platelets was carried out at room temperature. The platelet rich plasma was obtained by centrifugation at 980 rpm for 10 minutes. One tenth (1/10) amount of 77 mM-EDTA-Na (pH 7.4) was added to the platelet rich plasma, and the mixture was centrifuged for 10 minutes at 3000 rpm. The suspension was again centrifuged at 3000 rpm for 10 minutes. The precipitate was further resuspended in a suspension buffer (2) shown in Table 2 to obtain washed platelets. The number of platelets was counted by an automatic blood cell counter (Sysmex Microcellcounter F-800) and the sample was diluted with the suspension buffer to 4×10^8 cells/ml. The platelets, sample solution and labeled compounds were placed into plastic tubes in amounts (volumes) shown in the following Table 3, incubated for 45 minutes at 25° C., and then the mixture was filtered using a cell harvester (Brandel cell harvester M-24R) by a glass fiber filter (Whatman GF/B). After the filter was sufficiently dried, the scintillation was counted by a scintillation counter (Beckman LS5000TD). IC50 was calculated from (binding)/(control binding) ratio in the presence of an antagonist. [table 3: the next 10 blocks are its lines as printed, fixed-width]

rat platelet = assay: Inhibitory activity of aggregation in rat platelet; assay type: cell-based; conditions: rat platelet rich plasma, arachidonic acid (final concentration 0.5 mM) as inducer; read-out: C: Inhibitory activity of aggregation in rat platelet (IC50; μM)
Method in brief: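 Platelet-rich plasma was prepared from citrated (0.38% final) rat abdominal arterial blood and preincubated 1 min at 37°C. Compound was added 2 min before arachidonic acid (0.5 mM final). Light transmission change was recorded for 5 min.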

O=C(O)Cc1ccc(NC(=O)C(CCOC2CCCCO2)NS(=O)(=O)c2ccc(Cl)cc2)cc1 (racemic) [Example 169, (RS)-N-(4-(carboxymethyl)phenyl)-2-(4-chlorobenzenesulfonylamino)-4-(tetrahydropyran-2-yloxy)butanamide]
IC50 [1]: 0.69 µM
IC50 (rat platelet): 1.7 µM

O=C(O)Cc1ccc(NC(=O)C(CCc2ccccc2)NS(=O)(=O)c2ccc(Cl)cc2)cc1 (racemic) [Example 172, (RS)-N-(4-(carboxymethyl)phenyl)-2-(4-chlorobenzenesulfonylamino)-4-phenylbutanamide]
IC50 [1]: 0.072 µM
IC50 (rat platelet): 1.7 µM

O=C(O)CCc1ccc(NC(=O)C(CCc2ccccc2)NS(=O)(=O)c2ccc(Cl)cc2)cc1 (racemic) [Example 174, (RS)-N-(4-(2-carboxyethyl)phenyl)-2-(4-chlorobenzenesulfonylamino)-4-phenylbutanamide]
IC50 [1]: 0.17 µM
IC50 (rat platelet): 5.3 µM

CCCCC(NS(=O)(=O)c1ccc(Br)cc1)C(=O)Nc1ccc(CC(=O)O)cc1 (racemic) [Example 226, (RS)-2-(4-bromobenzenesulfonylamino)-N-(4-(carboxymethyl)phenyl)hexanamide]
IC50 [1]: 0.072 µM
IC50 (rat platelet): 0.53 µM

CC(C)CC(NS(=O)(=O)c1ccc(Cl)cc1)C(=O)Nc1ccc(CC(=O)O)cc1 (racemic) [Example 232, (RS)-N-(4-(carboxymethyl)phenyl)-2-(4-chlorobenzenesulfonylamino)-4-methylpentanamide]
IC50 [1]: 0.16 µM
IC50 (rat platelet): 1.7 µM

CSCCC(NS(=O)(=O)c1ccc(Cl)cc1)C(=O)Nc1ccc(CC(=O)O)cc1 (racemic) [Example 233, (RS)-N-(4-(carboxymethyl)phenyl)-2-(4-chlorobenzenesulfonylamino)-4-methylthiobutanamide]
IC50 [1]: 0.17 µM
IC50 (rat platelet): 0.17 µM

CCSCCC(NS(=O)(=O)c1ccc(Cl)cc1)C(=O)Nc1ccc(CC(=O)O)cc1 (racemic) [Example 242, (RS)-N-(4-(carboxymethyl)phenyl)-2-(4-chlorobenzenesulfonylamino)-4-ethylthiobutanamide]
IC50 [1]: 0.032 µM
IC50 (rat platelet): 0.16 µM

CCSCCC(NS(=O)(=O)c1ccc(Cl)cc1)C(=O)Nc1ccc(CCC(=O)O)cc1 (racemic) [Example 244, (RS)-N-(4-(2-carboxyethyl)phenyl)-2-(4-chlorobenzenesulfonylamino)-4-ethylthiobutanamide]
IC50 [1]: 0.29 µM
IC50 (rat platelet): 1.6 µM

O=C(O)Cc1ccc(NC(=O)C(Cc2ccccc2)NS(=O)(=O)c2ccc(Cl)cc2)cc1 (racemic) [Example 247, (RS)-N-(4-(carboxymethyl)phenyl)-2-(4-chlorobenzenesulfonylamino)-3-phenylpropanamide]
IC50 [1]: 0.046 µM
IC50 (rat platelet): 0.54 µM

O=C(O)CCc1ccc(NC(=O)C(Cc2ccccc2)NS(=O)(=O)c2ccc(Cl)cc2)cc1 (racemic) [Example 249, (RS)-N-(4-(2-carboxyethyl)phenyl)-2-(4-chlorobenzenesulfonylamino)-3-phenylpropanamide]
IC50 [1]: 0.024 µM
IC50 (rat platelet): 0.18 µM

O=C(O)Cc1ccc(NC(=O)C(Cc2ccccc2)NS(=O)(=O)c2ccc(Br)cc2)cc1 (racemic) [Example 251, (RS)-2-(4-bromobenzenesulfonylamino)-N-(4-(carboxymethyl)phenyl)-3-phenylpropanamide]
IC50 [1]: 0.012 µM
IC50 (rat platelet): 0.17 µM

O=C(O)Cc1ccc(NC(=O)C(CC2CCCCC2)NS(=O)(=O)c2ccc(Cl)cc2)cc1 (racemic) [Example 260, (RS)-N-(4-(carboxymethyl)phenyl)-2-(4-chlorobenzenesulfonylamino)-3-cyclohexylpropanamide]
IC50 [1]: 0.06 µM
IC50 (rat platelet): 0.89 µM

CCCC[C@H](NS(=O)(=O)c1ccc(Cl)cc1)C(=O)Nc1ccc(CC(=O)O)cc1 [Example 223, (S)-N-(4-(carboxymethyl)phenyl)-2-(4-chlorobenzenesulfonylamino)hexanamide]
IC50 [1]: 0.13 µM
IC50 (rat platelet): 0.17 µM

CCCC[C@@H](NS(=O)(=O)c1ccc(Cl)cc1)C(=O)Nc1ccc(CC(=O)O)cc1 [Example 224, (R)-N-(4-(carboxymethyl)phenyl)-2-(4-chlorobenzenesulfonylamino)hexanamide]
IC50 [1]: 48.2 µM
IC50 (rat platelet): 3.4 µM

CSCC[C@H](NS(=O)(=O)c1ccc(Cl)cc1)C(=O)Nc1ccc(CC(=O)O)cc1 [Example 234, (S)-N-(4-(carboxymethyl)phenyl)-2-(4-chlorobenzenesulfonylamino)-4-methylthiobutanamide]
IC50 [1]: 0.052 µM
IC50 (rat platelet): 0.17 µM

CSCC[C@@H](NS(=O)(=O)c1ccc(Cl)cc1)C(=O)Nc1ccc(CC(=O)O)cc1 [Example 235, (R)-N-(4-(carboxymethyl)phenyl)-2-(4-chlorobenzenesulfonylamino)-4-methylthiobutanamide]
IC50 [1]: 22 µM
IC50 (rat platelet): 17.1 µM

CSCC[C@H](NS(=O)(=O)c1ccc(Cl)cc1)C(=O)Nc1ccc(CCC(=O)O)cc1 [Example 237, (S)-N-(4-(2-carboxyethyl)phenyl)-2-(4-chlorobenzenesulfonylamino)-4-methylthiobutanamide]
IC50 [1]: 0.15 µM
IC50 (rat platelet): 0.3 µM

CSCC[C@H](NS(=O)(=O)c1ccc(Br)cc1)C(=O)Nc1ccc(CC(=O)O)cc1 [Example 239, (S)-2-(4-bromobenzenesulfonylamino)-N-(4-(carboxymethyl)phenyl)-4-methylthiobutanamide]
IC50 [1]: 0.026 µM
IC50 (rat platelet): 0.055 µM

CSCC[C@H](NS(=O)(=O)c1ccc(Br)cc1)C(=O)Nc1ccc(CCC(=O)O)cc1 [Example 240, (S)-2-(4-bromobenzenesulfonylamino)-N-(4-(2-carboxyethyl)phenyl)-4-methylthiobutanamide]
IC50 [1]: 0.099 µM
IC50 (rat platelet): 0.17 µM

CSCC[C@H](NS(=O)(=O)c1ccc(Br)cc1)C(=O)Nc1cccc(C(=O)O)c1 [Example 241, (S)-2-(4-bromobenzenesulfonylamino)-N-(3-carboxyphenyl)-4-methylthiobutanamide]
IC50 [1]: 0.014 µM
IC50 (rat platelet): 0.053 µM

O=C(O)Cc1ccc(NC(=O)[C@H](Cc2ccccc2)NS(=O)(=O)c2ccc(Cl)cc2)cc1 [Example 248, (S)-N-(4-(carboxymethyl)phenyl)-2-(4-chlorobenzenesulfonylamino)-3-phenylpropanamide]
IC50 [1]: 0.012 µM
IC50 (rat platelet): 0.053 µM

O=C(O)CCc1ccc(NC(=O)[C@H](Cc2ccccc2)NS(=O)(=O)c2ccc(Cl)cc2)cc1 [Example 250, (S)-N-(4-(2-carboxyethyl)phenyl)-2-(4-chlorobenzenesulfonylamino)-3-phenylpropanamide]
IC50 [1]: 0.029 µM
IC50 (rat platelet): 0.17 µM

O=C(O)Cc1ccc(NC(=O)[C@H](Cc2ccccc2)NS(=O)(=O)c2ccc(Br)cc2)cc1 [Example 252, (S)-2-(4-bromobenzenesulfonylamino)-N-(4-(carboxymethyl)phenyl)-3-phenylpropanamide]
IC50 [1]: 0.0071 µM
IC50 (rat platelet): 0.055 µM

O=C(O)CCc1ccc(NC(=O)[C@H](Cc2ccccc2)NS(=O)(=O)c2ccc(Br)cc2)cc1 [Example 254, (S)-2-(4-bromobenzenesulfonylamino)-N-(4-(2-carboxyethyl)phenyl)-3-phenylpropanamide]
IC50 [1]: 0.005 µM
IC50 (rat platelet): 0.051 µM

O=C(O)c1cccc(NC(=O)[C@H](Cc2ccccc2)NS(=O)(=O)c2ccc(Br)cc2)c1 [Example 257, (S)-2-(4-bromobenzenesulfonylamino)-N-(3-carboxyphenyl)-3-phenylpropanamide]
IC50 [1]: 0.0087 µM
IC50 (rat platelet): 0.17 µM
